The values below come from PubChem BioAssay AID1250 (SRMLSC, 2008).

Structures are written as SMILES. The source made the active and inactive calls.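 Rule for the calls: active = inhibition of at least 30% at one or more tested concentrations; inactive = inhibition below 30% at every dose.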

In test [1] the test system is BSR cells, Bluetongue virus CPE, ATP luminescence, 72 h. The test can be described thus: antiviral protection against BTV-induced cell death – arbovirus, BSR cells, confirmation (AID 1250).
Experiment in test [2]: as above
Particulars: BSR cells, Bluetongue virus CPE, ATP luminescence, 72 h; at 20 µM (top of the series).

For the compound `COc1ccc(Cl)cc1NC(=O)c1cc(-c2ccccc2O)n[nH]1`, in test [1], the concentration for half-maximal inhibition (IC50) is 14.4 µM.
For `COc1ccc(-c2csc(NC(=O)C3=NN(c4ccccc4)C(=O)CC3)n2)cc1`, the IC50 in test [1] is 20.7 µM.
Regarding `CCCCCCc1cc2cc(C(=O)Nc3ccccc3OC)c(=O)oc2cc1O`, the IC50 in test [1] is 9.14 µM.
Same read-out and setting: under `O=C(Nc1nc(-c2ccccc2)cs1)c1cccs1` stands 10.1 µM.
The same measure, in the same setting: under `O=C(O)c1ccc(N2C(=O)/C(=C/c3ccc(-c4ccc([N+](=O)[O-])cc4)o3)C=C2c2ccccc2)cc1` stands 5.33 µM; under `O=C(Nc1nc(-c2ccc(Cl)cc2Cl)cs1)c1ccc(OCC2CCCO2)cc1` (centres undefined), 5.08 µM.
The same measure, in the same setting: under `C/C(=N\NC(=O)c1ccccc1C)c1ccc(NC(=O)c2cccs2)cc1` stands 0.524 µM; under `CC(C)COc1ccc(C(=O)Nc2sc3c(c2C(=O)O)CC(C)(C)OC3)cc1`, 13.1 µM.
In the case of `Cc1nc(CS(=O)c2ccc(Cl)cc2)cc(NCc2ccc(Cl)cc2Cl)n1` (centres undefined), in test [1], the IC50 is 9.42 µM.
Take `Cc1nn(-c2ccccc2)c(Cl)c1/C=N/Nc1ccc(Cl)c(C(=O)O)c1`: the IC50 in test [1] is 14.5 µM.
As to `Cn1c(-c2c(N)n(-c3ccccc3)c3nc4ccccc4nc23)nc2ccccc21`, the IC50 in test [1] was 2.42 µM.
For `Cc1ccc(-c2csc(NC(=O)/C=C/c3ccco3)c2C(=O)O)cc1`, in test [1], the half-inhibitory concentration (IC50) was 8.57 µM.
The same measure, in the same setting: next, `Cc1nc(Nc2ccc3c(c2)OCCO3)c2nnn(Cc3ccccc3Cl)c2n1`: 20.8 µM.
Still for that read-out and setting: under `Cc1cc(C)c2cc(CN(Cc3cccnc3)C(=O)c3ccc(F)cc3)c(Cl)nc2c1` stands 0.416 µM; under `CC(NC(=O)c1cccs1)c1nnc(SCc2ccc(Cl)cc2Cl)n1C` (centres undefined), 9.37 µM.
The same measure, in the same setting: next, `COc1ccc(-c2csc(NC(=O)c3ccco3)n2)cc1`: 19.3 µM; `O=C(/C=C/c1ccco1)Nc1sc2c(c1C(=O)O)CCC2`: 17 µM; `COc1cc(C(=O)Nc2nc(-c3ccc(F)cc3)cs2)ccc1OCC(=O)N1CCOCC1`: 10.6 µM.
Regarding `Cc1ccc(-c2csc(NC(=O)c3cccs3)n2)cc1`, the IC50 in test [1] was 5 µM.
Still for that read-out and setting: next, `CCOC(=O)c1ccc(N2C(=O)C3C(/C=C/c4ccccc4)OC4(C(=O)c5ccccc5C4=O)C3C2=O)cc1` (centres undefined): 19.6 µM.
As to `COc1ccc(Cn2c(C)c(C)c(C#N)c2NC(=O)Nc2cccc(C)c2)cc1`, the half-inhibitory concentration (IC50) in test [1] is 7.63 µM.
The same measure, in the same setting: under `COc1cc(C(=O)Nc2nc(-c3ccc(C)cc3)cs2)ccc1OCC(=O)N1CCOCC1` stands 4 µM; under `O=c1[nH]n2c(=O)c3c([nH]c2c1N=Nc1cccc(Cl)c1)CCCC3`, 18.5 µM.
Still for that read-out and setting: under `Cc1cccc(C)c1-n1cccc1/C=C1/C(=N)N2C(=NC1=O)SN=C2S(C)(=O)=O` stands 16.4 µM; under `N#Cc1sc2nc(-c3cccs3)cc(-c3ccc(F)cc3)c2c1N`, 2.28 µM.
The same measure, in the same setting: next, `O=C(O)c1cccc(N/N=C/C2=C(Cl)c3cc(Cl)ccc3SC2)c1`: 13.2 µM; `Cc1ccc(-c2csc(NC(=O)C3=NN(c4ccccc4)C(=O)CC3)n2)cc1`: 11.1 µM; `Cc1csc(NC(=O)c2c(O)c3c(n(CC(C)C)c2=O)CCCC3)n1`: 4.9 µM.
Consider `CC(C)Cc1csc(NC(=O)c2ccccc2Cl)c1C(=O)O`, for which the half-maximal inhibitory concentration (IC50) in test [1] is 20.6 µM.
Still for that read-out and setting: under `O=c1oc(-c2cc3ccccc3o2)nc2sc3c(c12)CCCC3` stands 4.59 µM.
The same measure, in the same setting: under `COC(=O)c1ccccc1NC(=O)CN1CCC(n2nnc3cc(F)ccc32)CC1` stands 0.178 µM.
On the same count and under the same terms, under `CCNc1nc(SCCOc2ccc(Cl)cc2Cl)nc(N(C)C)n1` stands 5.92 µM.
Regarding `CC(C)(C)c1c(Cl)c(O)c(-c2ccccc2)c(=O)n1-c1ccccc1`, the IC50 in test [1] is 15.5 µM.
For the compound `O=C(/C=C/c1cccs1)Nc1scc(-c2ccccc2)c1C(=O)O`, in test [1], the IC50 was 6.24 µM.
The same measure, in the same setting: under `O=C(Nc1ccccc1)Nc1snnc1C(=O)Nc1cccc(O)c1` stands 19 µM.
Same read-out and setting: under `CC(C(=O)Nc1ccccc1-c1ccccc1)N1CCN(S(=O)(=O)c2ccccc2)CC1` (centres undefined) stands 1.4 µM.
Still for that read-out and setting: under `COc1ccc(NC(=O)c2c[nH]n3c(=O)cc(C4CCN(C(=O)OC(C)(C)C)CC4)nc23)cc1Cl` stands 12.2 µM.
With `CCOc1ccc(C(=O)Nc2cc(NC(=O)c3ccc(OCC)c(Cl)c3)cc(C(=O)O)c2)cc1Cl`, the IC50 in test [1] was 20.9 µM.
On to `COc1cccc(C(=O)Nc2nc(-c3ccc4c(c3)OCO4)cs2)c1`, for which the IC50 in test [1] was 9.98 µM.
In the case of `Oc1ccc(Nc2nc(NCC3CCCO3)c3ccccc3n2)cc1` (centres undefined), in test [1], the IC50 is 20.8 µM.
The same measure, in the same setting: next, `Oc1ccc(Br)cc1-c1cc(-c2ccc(Cl)cc2)n[nH]1`: 17.5 µM; `O=C(O)CSc1cc(C(=O)c2ccccc2O)cn2c(=O)c3c(-c4ccccc4)csc3nc12`: 14.1 µM.
Still for that read-out and setting: next, `Nc1nc(-c2ccccc2)c(-c2ccc([N+](=O)[O-])cc2)s1`: 5.6 µM; `CC(C)(C)n1nnnc1C(c1ccc(C(F)(F)F)cc1)N(Cc1ccc(F)cc1)Cc1ccco1` (centres undefined): 20.5 µM; `CC(C)(C)c1ccc(C(=O)Nc2sc3c(c2C(=O)O)CCC3)cc1`: 0.165 µM.
On the same count and under the same terms, under `COCCCn1c(N)c(-c2nc3ccccc3n2C)c2nc3ccccc3nc21` stands 7.62 µM; under `CC1(c2ccc([N+](=O)[O-])cc2)CC(C)(C)N(C(=O)c2ccccc2)c2ccccc21` (centres undefined), 9.68 µM; under `COc1ccc(NC(=O)c2cc3cccc(OC)c3oc2=Nc2ccc(C(=O)O)cc2)cc1OC`, 13.3 µM.
With `COc1cc([N+](=O)[O-])ccc1NC(=O)CC1SC(=Nc2ccc(F)cc2)N(CCC2=CCCCC2)C1=O` (centres undefined), in test [1], the half-maximal inhibitory concentration (IC50) was 0.108 µM.
Same read-out and setting: next, `CC(C)Sc1nsc2nc(=O)c(/C=C3\C=Nc4ccccc43)c(N)n12`: 10.3 µM; `CCc1nn2c(N)c(/C=C3\C=Nc4ccccc43)c(=O)nc2s1`: 18.3 µM; `CC(=O)OC[C@H]1O[C@@H](n2ncc(=O)[nH]c2=O)[C@H](OC(C)=O)[C@@H]1OC(C)=O`: 9.79 µM.
Turning to `COc1ccc(N=C2S/C(=C\c3ccc(OCC(=O)O)cc3)C(=O)N2CCc2c[nH]c3ccccc23)cc1`, the IC50 in test [1] was 15.6 µM.
`COC(=O)c1ccccc1NC(=O)CN1CCC(NC(=O)c2ccccc2C)CC1`: the IC50 in test [1] was 1.45 µM.
As to `COc1ccc(/C=C/C(=O)Nc2ccccc2C(=O)O)cc1OC`, the IC50 in test [1] was 4.78 µM.
Turning to `O=C(/C=C/c1ccccc1)Nc1scc(-c2ccccc2)c1C(=O)O`, the IC50 in test [1] was 3.06 µM.
Same read-out and setting: under `COc1ccc(CN(C(=O)c2cc3ccccc3oc2=O)C2CCCCC2)cc1OC` stands 16.6 µM; under `CCOc1cc(/C=C(/C#N)c2ccc(Cl)cc2)cc(Cl)c1OCC(=O)O`, 20.6 µM.
For `C=CCn1c(CNC(=O)c2cccs2)nnc1SCc1ccc(Cl)cc1Cl`, in test [1], the IC50 was 11 µM.
`CN(C(=O)c1coc(=O)c2ccccc12)c1ccc(Br)cc1`: in test [2], the CPE inhibition was 18.4% (inactive).
Same read-out and setting: under `COc1cccc(C(=O)Nc2cccc(C(=O)NC3=NN(c4c(Cl)cc(Cl)cc4Cl)C(=O)C3)c2)c1` stands 18.8% (inactive); under `CCOC(=O)N1CCC(Nc2c(Nc3cccc(CC)c3)c(=O)c2=O)CC1`, 9.52% (inactive); under `O=C(CSCC(=O)N1CCCCC1)OCC(=O)c1c[nH]c2ccccc12`, -2.4% (inactive).
On to `COc1ccc(OC)c(/C=N\NC(=O)CC(=O)NCCc2ccccc2)c1`, for which the CPE inhibition in test [2] is -1.6% (inactive).
Turning to `Cc1ccccc1CSc1nnc(NC(=O)C2COc3ccccc3O2)s1` (centres undefined), the CPE inhibition in test [2] is 18.9% (inactive).
On the same count and under the same terms, under `O=C(Nc1nnc(SCc2ccccc2Cl)s1)C1COc2ccccc2O1` (centres undefined) stands 16.7% (inactive).
On the same count and under the same terms, under `Cc1ccc(C(CC(=O)O)Nc2nc(N3CCCCC3)nc(N3CCCCC3)n2)cc1` (centres undefined) stands 9.28% (inactive); under `CCCCCNc1nc2ccccc2nc1NS(=O)(=O)c1cccs1`, 20.4% (inactive); under `COC(=O)c1ccccc1N/C=C/C(=O)c1ccc(Br)cc1`, 28.6% (inactive).
Regarding `COc1ccc(-c2noc(-c3ccccc3-c3ccccc3)n2)cc1OC`, in test [2], the CPE inhibition was 10.8% (inactive).
In the case of `O=C(O)c1ccccc1N/N=C\c1ccnc2ccccc12`, the CPE inhibition in test [2] is 12.3% (inactive).
Same read-out and setting: next, `CS(=O)(=O)c1nsc2nc(=O)c(/C=C3\C=Nc4ccccc43)c(N)n12`: 14.8% (inactive).
Turning to `COCCSc1nnc(NC(=O)C2CCCCC2)s1`, the CPE inhibition in test [2] is 6.07% (inactive).
As for `C=CCNC(=O)c1onc(CSc2ccc(C(C)C)cc2)c1C(=O)O`, the CPE inhibition in test [2] is 1.33% (inactive).
Consider `CN(Cc1ccccc1)c1nc(N)c([N+](=O)[O-])c(NCc2ccccc2)n1`, for which, in test [2], the CPE inhibition is -7.95% (inactive).
On the same count and under the same terms, under `CCCCCCc1cc2cc(C(=O)Nc3ccc(OC)cc3)c(=O)oc2cc1O` stands -3.41% (inactive); under `CCOC(=O)c1nn(-c2ccc(Cl)cc2)c2nc(Nc3ccccc3)cc(=O)n12`, 28.9% (inactive).
As for `Cc1nc2c(C(=O)NCCC(C)C)c[nH]n2c(=O)c1Cl`, the CPE inhibition in test [2] is 9.83% (inactive).
For `CCCCN(CC)C(=O)CSc1nc2c(sc(=S)n2-c2ccc(OCC)cc2)c(=O)[nH]1`, the CPE inhibition in test [2] is 18.4% (inactive).
Turning to `Cc1nnc(SCC(=O)N2CCc3ccccc32)s1`, the CPE inhibition in test [2] was 3.29% (inactive).
Still for that read-out and setting: under `Cc1cccc(C)c1Nc1nnc(SC/C(O)=C(\C#N)c2nc3ccccc3[nH]2)s1` stands 16.8% (inactive).
For `Cc1nn(C)cc1CN(C)Cc1ccc(OCC(O)CN2CCCCC2)cc1` (centres undefined), in test [2], the CPE inhibition is 11.1% (inactive).
For `CSc1nc(C)c(CCO)c(=O)[nH]1`, the CPE inhibition in test [2] was 3.71% (inactive).
On the same count and under the same terms, next, `CCOC(=O)C1(CCCc2ccccc2)CCN(C2CCSCC2)CC1`: 11.3% (inactive).
Still for that read-out and setting: under `Cc1cccc(-n2c3nc(=O)[nH]c(=O)c-3cc3cc([N+](=O)[O-])ccc32)c1` stands 16.1% (inactive); under `Cc1ccccc1OCCSCc1nc2ccccc2[nH]1`, 24.9% (inactive).
The same measure, in the same setting: next, `Cc1cccc(-n2c(=O)c3c4c(sc3n3c(=S)[nH]nc23)CCC4)c1`: 7.97% (inactive); `C/C(=N\Nc1nc2ccccc2[nH]1)c1ccc2c(c1)OCO2`: 8.76% (inactive); `CC(C)S(=O)(=O)c1nsc2nc(=O)c(/C=C3\C=Nc4ccccc43)c(N)n12`: 22% (inactive).

The IC50 is the concentration that inhibits the measured activity by half.
